Reference: patent US20040132821A1, “Therapeutic combination of carnitine and antioxidant polyphenols” (priority 2002, published 2004)
Where two headings read alike, the source gives them in different places.

What was measured:
mice = experiment: Toxicological test, parenteral administration, mice; format: in vivo
Source text: (§1) Both carnitines and hydroxytyrosol are well known for their low toxicity and good tolerability. These favorable toxicological characteristics of carnitines and hydroxytyrosol have been confirmed.

rats = experiment: Toxicological test, parenteral administration, rats; format: in vivo
Source text: as §1

[1] = after consumption of a meal, hydroxytyrosol in olive oil; cited from earlier work
[2] = cited from earlier work
[3] = humans, after ingestion; cited from earlier work

SMILES: CC(=O)O[C@H](CC(=O)[O-])C[N+](C)(C)C [acetyl-L-carnitine, Acetyl-L-carnitine]
- amount possible to administer parenterally (mice): up to 250 mg/kg
- amount possible to administer parenterally (rats): up to 250 mg/kg

SMILES: OCCc1ccc(O)c(O)c1 [hydroxytyrosol, Hydroxytyrosol]
- time of peak postprandial concentration [1]: 1 to 2 h
- oral bioavailability ([2]; aqueous solution): 71%
- oral bioavailability ([2]; olive oil solution): 99%
- preferential route of excretion [3]: glucuronide conjugates in urine
